{
  "source": "ChEMBL document CHEMBL1275241",
  "about": "“Novel variants of the qnrB gene, qnrB22 and qnrB23, in Citrobacter werkmanii and Citrobacter freundii” (2010)",
  "format_in_all_cases": "functional",
  "key": {"[1]": {"tested_on": "Citrobacter freundii", "experiment": "Antimicrobial activity against Citrobacter freundii S008 expressing PMQR determinant qnrB23 gene by Etest"}, "[2]": {"tested_on": "Escherichia coli", "experiment": "Antimicrobial activity against […] Escherichia coli DH5alpha TrfS008 harboring PMQR determinant qnrB23 by Etest"}, "[3]": {"tested_on": "Citrobacter werkmanii", "experiment": "Antimicrobial activity against Citrobacter werkmanii PS012 expressing PMQR determinant qnrB22 gene by Etest"}, "[4]": {"tested_on": "Escherichia coli", "experiment": "Antimicrobial activity against azide-resistant Escherichia coli J53 by Etest"}, "[5]": {"tested_on": "Escherichia coli", "experiment": "Antimicrobial activity against […] Escherichia coli DH5alpha TrfPS012 harboring PMQR determinant qnrB22 by Etest"}, "[6]": {"tested_on": "Escherichia coli", "experiment": "Antimicrobial activity against […] Escherichia coli DH5alpha by Etest"}, "[7]": {"tested_on": "Escherichia coli", "experiment": "Antimicrobial activity against azide-resistant Escherichia coli J53 TrcS008 harboring PMQR determinant qnrB23 by Etest"}, "[8]": {"tested_on": "Escherichia coli", "experiment": "Antimicrobial activity against azide-resistant Escherichia coli J53 TrcPS012 harboring PMQR determinant qnrB22 by Etest"}},
  "data": [
    {"smiles": "O=C(O)c1cn(C2CC2)c2cc(N3CCNCC3)c(F)cc2c1=O", "note": "[CIPROFLOXACIN]", "values": [
      {"measurement": "MIC", "setting": "[1]", "result": 2, "unit": "µg/mL"},
      {"measurement": "MIC", "setting": "[2]", "result": 0.064, "unit": "µg/mL"},
      {"measurement": "MIC", "setting": "[3]", "result": 0.25, "unit": "µg/mL"}
    ]},
    {"smiles": "C[C@H]1COc2c(N3CCN(C)CC3)c(F)cc3c(=O)c(C(=O)O)cn1c23.C[C@H]1COc2c(N3CCN(C)CC3)c(F)cc3c(=O)c(C(=O)O)cn1c23.O", "note": "[LEVOFLOXACIN]", "values": [
      {"measurement": "MIC", "setting": "[4]", "result": 0.023, "unit": "µg/mL"},
      {"measurement": "MIC", "setting": "[1]", "result": 3, "unit": "µg/mL"},
      {"measurement": "MIC", "setting": "[5]", "result": 0.004, "unit": "µg/mL"},
      {"measurement": "MIC", "setting": "[2]", "result": 0.094, "unit": "µg/mL"},
      {"measurement": "MIC", "setting": "[3]", "result": 0.5, "unit": "µg/mL"},
      {"measurement": "MIC", "setting": "[6]", "result": "< 0.002", "unit": "µg/mL"},
      {"measurement": "MIC", "setting": "[7]", "result": 3, "unit": "µg/mL"}
    ]},
    {"smiles": "CCn1cc(C(=O)O)c(=O)c2ccc(C)nc21", "note": "[NALIDIXIC ACID]", "values": [
      {"measurement": "MIC", "setting": "[4]", "result": 3, "unit": "µg/mL"},
      {"measurement": "MIC", "setting": "[1]", "result": "> 256", "unit": "µg/mL"},
      {"measurement": "MIC", "setting": "[5]", "result": 4, "unit": "µg/mL"},
      {"measurement": "MIC", "setting": "[8]", "result": 16, "unit": "µg/mL"},
      {"measurement": "MIC", "setting": "[2]", "result": 16, "unit": "µg/mL"},
      {"measurement": "MIC", "setting": "[3]", "result": 32, "unit": "µg/mL"},
      {"measurement": "MIC", "setting": "[6]", "result": 2, "unit": "µg/mL"},
      {"measurement": "MIC", "setting": "[7]", "result": "> 256", "unit": "µg/mL"}
    ]},
    {"smiles": "CCn1cc(C(=O)O)c(=O)c2cc(F)c(N3CCNCC3)cc21", "note": "[NORFLOXACIN]", "values": [
      {"measurement": "MIC", "setting": "[4]", "result": 0.064, "unit": "µg/mL"},
      {"measurement": "MIC", "setting": "[1]", "result": 8, "unit": "µg/mL"},
      {"measurement": "MIC", "setting": "[5]", "result": 0.064, "unit": "µg/mL"},
      {"measurement": "MIC", "setting": "[8]", "result": 0.25, "unit": "µg/mL"},
      {"measurement": "MIC", "setting": "[2]", "result": 0.25, "unit": "µg/mL"},
      {"measurement": "MIC", "setting": "[3]", "result": 0.5, "unit": "µg/mL"},
      {"measurement": "MIC", "setting": "[6]", "result": 0.032, "unit": "µg/mL"},
      {"measurement": "MIC", "setting": "[7]", "result": 8, "unit": "µg/mL"}
    ]},
    {"smiles": "CC1COc2c(N3CCN(C)CC3)c(F)cc3c(=O)c(C(=O)O)cn1c23", "note": "(stereo not drawn) [OFLOXACIN]", "values": [
      {"measurement": "MIC", "setting": "[4]", "result": 0.064, "unit": "µg/mL"},
      {"measurement": "MIC", "setting": "[1]", "result": 8, "unit": "µg/mL"},
      {"measurement": "MIC", "setting": "[5]", "result": 0.064, "unit": "µg/mL"},
      {"measurement": "MIC", "setting": "[2]", "result": 0.25, "unit": "µg/mL"},
      {"measurement": "MIC", "setting": "[3]", "result": 1, "unit": "µg/mL"},
      {"measurement": "MIC", "setting": "[6]", "result": 0.023, "unit": "µg/mL"},
      {"measurement": "MIC", "setting": "[7]", "result": 8, "unit": "µg/mL"}
    ]}
  ]
}
